Reference: paper PMC10606834, “Is the Neuropeptide PEN a Ligand of GPR83?” (International Journal of Molecular Sciences, 2023)
Entries after “also recorded” stand apart in the source; their conditions may differ.

Key:
Format in all cases: cell-based, human
[1] = system: GPR83 and deletion variant GPR83del (HEK293 clones; wild-type HEK293 as comparison); experiment: Intracellular calcium mobilization, HEK293 cells
Experimental: (§1) As activation of many GPCRs is coupled to calcium mobilization from intracellular stores, GPR83 was probed for ligand-dependent calcium release. Wild-type HEK293 cells and HEK293 clones overexpressing either full-length GPR83 or the N-terminal deletion variant GPR83del were exposed to buffer or one of two independent synthesis batches (PEN #1 and PEN #2) of the neuropeptide PEN, while calcium indicator fluorescence was recorded. […] Calcium release was also tested in a second cell line, osteosarcoma U2OS cells, using various stably expressing clones. […] Therefore, HEK293 cells transfected with Gα16 were employed to investigate a potential GPR83-dependent calcium mobilization with PEN. […] A number of GPCRs show ligand-independent basal calcium activity. However, in an experiment comparing basal calcium levels in wild-type HEK293 cells and in HEK293 clones overexpressing four different variants of GPR83, they were not found to be different (Figure 2D).
Figure 2 Investigation of ligand-dependent and ligand-independent intracellular calcium mobilization. (A) Wild-type HEK293 cells and HEK293 cell clones overexpressing either GPR83 or the deletion variant GPR83del were incubated with either buffer or the specified ligand (10 µM PEN or co mix = 100 µM carbachol, 100 µM ATP, 40 µM dimaprit, or 50 µM ionomycin). (B) Calcium indicator fluorescence intensity traces over 60 s of various U2OS cell clones overexpressing untagged or HA-tagged GPR83 or the deletion variant GPR83del before and after the addition of buffer or ligand (co mix as in (A) or 50 µM ionomycin or 10 µM PEN). […]
Cells were seeded at 50,000 cells/well in a poly-D-lysine coated 96-well black well/clear bottom plate (BD Falcon, Franklin Lakes, NJ, USA) and cultured overnight. […] Fluorescence was recorded with the fluorescence imaging plate reader CellLux (Perkin Elmer, Waltham, MA, USA) simultaneously in all wells at an excitation wavelength of 488 nm and emission wavelength of 510 nm in 1.5 s intervals over a period of 4 min. Fluorescence data were generated in duplicate, and experiments were repeated at least two times.

[2] = system: GPR83 and deletion variant GPR83del (untagged or HA-tagged, U2OS clones); experiment: Intracellular calcium mobilization, U2OS cells; conditions: 10 µM PEN, controls co mix or 50 µM ionomycin, traces over 60 s, ligand added 10 s after start of recording, Fluo4-AM, duplicate, repeated at least two times
Experimental: as §1, with “However, in an experiment comparing basal calcium levels in wild-type HEK293 cells and in HEK293 clones overexpressing four different variants of GPR83, they were not found to be different (Figure 2D).” left out
Figure 2 Investigation of ligand-dependent and ligand-independent intracellular calcium mobilization. […] (B) Calcium indicator fluorescence intensity traces over 60 s of various U2OS cell clones overexpressing untagged or HA-tagged GPR83 or the deletion variant GPR83del before and after the addition of buffer or ligand (co mix as in (A) or 50 µM ionomycin or 10 µM PEN). […]
Cells were seeded at 50,000 cells/well in a poly-D-lysine coated 96-well black well/clear bottom plate (BD Falcon, Franklin Lakes, NJ, USA) and cultured overnight. […] Fluorescence data were generated in duplicate, and experiments were repeated at least two times.

[3] = system: ERK1/2 phosphorylation in wild-type HEK293 cells; experiment: ERK1/2 phosphorylation (immunoblot), wild-type cells; conditions: 10 µM PEN #1, 15 min, n = 2
From the text: Apart from G protein-mediated second messenger signaling via Ca^2+ and cAMP, GPCR stimulation may also lead to activation of β-arrestin and phosphorylation of extracellular signal-regulated kinases 1/2 (ERK1/2). Immunoblot analysis was employed to investigate ligand-dependent phosphorylation of ERK1/2 in HEK293 cells overexpressing GPR83 or the deletion variant GPR83del as well as in wild-type HEK293 cells.
Figure 4 Ligand-dependent phosphorylation of ERK1/2 and β-arrestin (TANGO) assay. (A) Immunoblot detection of phosphorylated (upper blot) and total (lower blot) ERK1/2 in lysates of HEK293 wild-type cells and in HEK293 cells overexpressing GPR83 or GPR83del. (B) Quantification (mean ± SD of n = 2 independent experiments) of chemiluminescent readout of the immunoblots shown in (A). (C) TANGO assay for ligand-induced β-arrestin activity in HTLA cells overexpressing GPR83 (relative light units, RLU). (D) TANGO assay for ligand-induced β-arrestin activity in HTLA cells overexpressing bradykinin receptor BDKBR2.
4.7. ERK1/2 Phosphorylation Assay
Effects of GPCR ligands on MAPK signaling were assessed with Western blot analysis of lysates from stimulated cells. The ERK1/2 activation assay was performed as described before. […] Blots were analyzed using densitometric quantification using Image Lab Software v4.1 (Bio-Rad).

Sequence: AADHDVGSELPPEGVLGALLRV [PEN, batch #1 synthesized, batch #2 purchased from Phoenix Pharmaceuticals]
- calcium signal ([1]; 10 µM PEN, co mix = 100 µM carbachol, 100 µM ATP, 40 µM dimaprit, 50 µM ionomycin, HEK293 wild-type, GPR83 or GPR83del clones, Fluo4-AM fluorescence, compared with buffer, duplicate, repeated at least two times): PEN did not
- Ca2+ signal above background ([1]; two synthesis batches of PEN, confirmed in HEK293 and U2OS cells, full-length or truncated GPR83 (Figure 2A–C)): none of two synthesis batches of PEN from different sources was found to yield a signal above background
- enhancement of calcium indicator fluorescence [2]: PEN did not
- phosphorylation of ERK1/2, wild-type HEK293 versus GPR83 or GPR83del cells [3]: equally strong ERK1/2 phosphorylation in wild-type HEK293 cells as well as in HEK293 cells overexpressing GPR83 or GPR83del; also recorded: also demonstrated a similar phosphorylation after incubation with PEN
